In the NIST ThermoML archive (doi:10.1021/acs.jced.6b00655):

Assay: xn = mol fraction of the nth substance listed
Conditions: 100 kPa, Liquid, Vibrating tube method

CCCC[N+](C)(CCCC)CCCC.O=S(=O)([N-]S(=O)(=O)C(F)(F)F)C(F)(F)F [tributylmethylammonium bis((trifluoromethyl)sulfonyl)imide] + Cc1ccccc1
343.15 K
Conditions | mass density [kg/m3]
x2 = 0 | 1224.15
x2 = 0.055 | 1218.2
x2 = 0.104 | 1212.25
x2 = 0.199 | 1200.37
x2 = 0.303 | 1184.47
x2 = 0.411 | 1163.41
x2 = 0.586 | 1117.48
x2 = 0.799 | 1036.86
x2 = 0.84 | 1016.08

CCCC[N+](C)(C)C.O=S(=O)([N-]S(=O)(=O)C(F)(F)F)C(F)(F)F [butyltrimethylammonium bis(trifluoromethylsulfonyl)imide] + CCc1ccccc1
343.15 K
Conditions | mass density [kg/m3]
x2 = 0 | 1348.32
x2 = 0.037 | 1345.32
x2 = 0.099 | 1330.93
x2 = 0.245 | 1295.53
x2 = 0.309 | 1271.7
x2 = 0.397 | 1243.17
x2 = 0.448 | 1221.88
x2 = 0.498 | 1201.31

CCCC[N+](C)(CCCC)CCCC.O=S(=O)([N-]S(=O)(=O)C(F)(F)F)C(F)(F)F [tributylmethylammonium bis((trifluoromethyl)sulfonyl)imide] + Cc1cccc(C)c1
343.15 K
Conditions | mass density [kg/m3]
x2 = 0 | 1224.18
x2 = 0.148 | 1203.79
x2 = 0.262 | 1185.69
x2 = 0.363 | 1165.61
x2 = 0.498 | 1130.77
x2 = 0.605 | 1095.81
x2 = 0.708 | 1059.94

CCCC[N+]1(C)CCCC1.N#CN=C=[N-] [1-butyl-1-methylpyrrolidinium dicyanamide] + Cc1cccc(C)c1
283.15 K
Conditions | mass density [kg/m3]
x2 = 0 | 1022.94
x2 = 0.057 | 1019.68
x2 = 0.112 | 1016.11
x2 = 0.202 | 1009.68
x2 = 0.26 | 1006.3
x2 = 0.318 | 1000.45
x2 = 0.388 | 995.25

CCCC[N+]1(C)CCCC1.O=S(=O)([N-]S(=O)(=O)C(F)(F)F)C(F)(F)F + Cc1ccccc1C
283.15 K
Conditions | mass density [kg/m3]
x2 = 0 | 1407.6
x2 = 0.21 | 1360.77
x2 = 0.409 | 1303.44
x2 = 0.622 | 1224.4
x2 = 0.673 | 1207.6

CCCC[N+]1(C)CCCC1.O=S(=O)([N-]S(=O)(=O)C(F)(F)F)C(F)(F)F + c1ccccc1
283.15 K
Conditions | mass density [kg/m3]
x2 = 0 | 1410.45
x2 = 0.106 | 1394.11
x2 = 0.309 | 1355.03
x2 = 0.505 | 1296.91
x2 = 0.714 | 1203.57
x2 = 0.813 | 1133.23

CCCC[N+](C)(C)C.O=S(=O)([N-]S(=O)(=O)C(F)(F)F)C(F)(F)F [butyltrimethylammonium bis(trifluoromethylsulfonyl)imide] + Cc1cccc(C)c1
343.15 K
Conditions | mass density [kg/m3]
x2 = 0 | 1348.32
x2 = 0.057 | 1340.71
x2 = 0.099 | 1330.46
x2 = 0.2 | 1304.78
x2 = 0.305 | 1274.33
x2 = 0.411 | 1235.86
x2 = 0.45 | 1222.37
x2 = 0.502 | 1201.38

CCCC[N+]1(C)CCCC1.O=S(=O)([N-]S(=O)(=O)C(F)(F)F)C(F)(F)F + CCc1ccccc1
283.15 K
Conditions | mass density [kg/m3]
x2 = 0 | 1410.45
x2 = 0.312 | 1332.47
x2 = 0.417 | 1296.15
x2 = 0.489 | 1268.45
x2 = 0.636 | 1201.58

CCCC[N+](C)(CCCC)CCCC.O=S(=O)([N-]S(=O)(=O)C(F)(F)F)C(F)(F)F [tributylmethylammonium bis((trifluoromethyl)sulfonyl)imide] + Cc1ccc(C)cc1
343.15 K
Conditions | mass density [kg/m3]
x2 = 0 | 1224.15
x2 = 0.106 | 1209.82
x2 = 0.257 | 1187.07
x2 = 0.37 | 1163.42
x2 = 0.459 | 1143.06
x2 = 0.552 | 1114.23
x2 = 0.7 | 1057.46

CCCC[N+]1(C)CCCC1.N#CN=C=[N-] [1-butyl-1-methylpyrrolidinium dicyanamide] + Cc1ccc(C)cc1
283.15 K
Conditions | mass density [kg/m3]
x2 = 0 | 1022.94
x2 = 0.055 | 1019.77
x2 = 0.109 | 1015.55
x2 = 0.21 | 1009.54
x2 = 0.27 | 1005.7
x2 = 0.335 | 1000.17
x2 = 0.389 | 993.97

CCCC[N+](C)(C)C.O=S(=O)([N-]S(=O)(=O)C(F)(F)F)C(F)(F)F [butyltrimethylammonium bis(trifluoromethylsulfonyl)imide] + Cc1ccc(C)cc1
343.15 K
Conditions | mass density [kg/m3]
x2 = 0 | 1348.32
x2 = 0.056 | 1341.21
x2 = 0.096 | 1332.06
x2 = 0.196 | 1307.74
x2 = 0.307 | 1273.97
x2 = 0.414 | 1235.93
x2 = 0.486 | 1205.85

CCCC[N+]1(C)CCCC1.N#CN=C=[N-] [1-butyl-1-methylpyrrolidinium dicyanamide] + Cc1ccccc1
283.15 K
Conditions | mass density [kg/m3]
x2 = 0 | 1022.97
x2 = 0.054 | 1020.33
x2 = 0.103 | 1018.02
x2 = 0.205 | 1012.43
x2 = 0.304 | 1006.23
x2 = 0.387 | 1000.63
x2 = 0.454 | 993.84
x2 = 0.528 | 986.94

CCCC[N+]1(C)CCCC1.N#CN=C=[N-] [1-butyl-1-methylpyrrolidinium dicyanamide] + Cc1ccccc1C
283.15 K
Conditions | mass density [kg/m3]
x2 = 0 | 1022.97
x2 = 0.001 | 1022.98
x2 = 0.102 | 1018.02
x2 = 0.202 | 1011.22
x2 = 0.305 | 1005.51
x2 = 0.385 | 999.83
x2 = 0.433 | 997.35

CCCC[N+]1(C)CCCC1.O=S(=O)([O-])C(F)(F)F [1-butyl-1-methylpyrrolidinium trifluoromethanesulfonate] + c1ccccc1
283.15 K
Conditions | mass density [kg/m3]
x2 = 0 | 1263.28
x2 = 0.047 | 1257.62
x2 = 0.095 | 1251.22
x2 = 0.199 | 1235.63
x2 = 0.293 | 1218.76
x2 = 0.405 | 1195.65
x2 = 0.503 | 1170.77
x2 = 0.601 | 1140.47
x2 = 0.644 | 1125.22
x2 = 0.675 | 1112.49
x2 = 0.701 | 1101.39
x2 = 0.718 | 1093.71
x2 = 0.738 | 1084.59

CCCC[N+]1(C)CCCC1.O=S(=O)([O-])C(F)(F)F [1-butyl-1-methylpyrrolidinium trifluoromethanesulfonate] + Cc1ccccc1
283.15 K
Conditions | mass density [kg/m3]
x2 = 0 | 1263.17
x2 = 0.052 | 1255.13
x2 = 0.102 | 1246.47
x2 = 0.221 | 1223.94
x2 = 0.313 | 1203.6
x2 = 0.4 | 1181.98
x2 = 0.516 | 1147.19
x2 = 0.579 | 1124.97

CCCC[N+]1(C)CCCC1.N#CN=C=[N-] [1-butyl-1-methylpyrrolidinium dicyanamide] + CCc1ccccc1
283.15 K
Conditions | mass density [kg/m3]
x2 = 0 | 1022.97
x2 = 0.044 | 1020.28
x2 = 0.11 | 1016.49
x2 = 0.2 | 1010.5
x2 = 0.307 | 1002.43
x2 = 0.359 | 997.98
x2 = 0.397 | 994.71

CCCC[N+]1(C)CCCC1.N#CN=C=[N-] [1-butyl-1-methylpyrrolidinium dicyanamide] + c1ccccc1
283.15 K
Conditions | mass density [kg/m3]
x2 = 0 | 1021.84
x2 = 0.051 | 1020.09
x2 = 0.099 | 1018.22
x2 = 0.199 | 1014.33
x2 = 0.293 | 1009.95
x2 = 0.401 | 1004.03
x2 = 0.505 | 996.7
x2 = 0.61 | 987.41
x2 = 0.637 | 984.55
x2 = 0.665 | 981.11
x2 = 0.69 | 978.4
x2 = 0.718 | 973.87

CCCC[N+]1(C)CCCC1.O=S(=O)([N-]S(=O)(=O)C(F)(F)F)C(F)(F)F + Cc1ccccc1
283.15 K
Conditions | mass density [kg/m3]
x2 = 0 | 1407.6
x2 = 0.509 | 1276.06
x2 = 0.574 | 1250.95
x2 = 0.611 | 1228.59
x2 = 0.73 | 1160.93

CCCC[N+]1(C)CCCC1.O=S(=O)([O-])C(F)(F)F [1-butyl-1-methylpyrrolidinium trifluoromethanesulfonate] + Cc1ccccc1C
283.15 K
Conditions | mass density [kg/m3]
x2 = 0 | 1263.17
x2 = 0.054 | 1252.3
x2 = 0.107 | 1243.62
x2 = 0.19 | 1225.81
x2 = 0.308 | 1197.9
x2 = 0.399 | 1174.56
x2 = 0.451 | 1160.97

CCCC[N+]1(C)CCCC1.O=S(=O)([O-])C(F)(F)F [1-butyl-1-methylpyrrolidinium trifluoromethanesulfonate] + Cc1cccc(C)c1
283.15 K
Conditions | mass density [kg/m3]
x2 = 0 | 1263.17
x2 = 0.054 | 1253.29
x2 = 0.11 | 1241.72
x2 = 0.202 | 1221.84
x2 = 0.308 | 1195.52
x2 = 0.352 | 1184.04
x2 = 0.402 | 1170.32
x2 = 0.418 | 1165.83
